US20130289047A1, “HETEROARYLTHIO DERIVATIVES AND ANALOGUES” (EPIOMED THERAPEUTICS, INC., priority 2010, published 2013)

How the values were obtained:
[1] = target: T1, 5HT1A receptor (Homo sapiens, UniProt P08908); test: Competitive receptor binding, 5HT1A (radiolabeled OH-DPAT); conditions: for inhibition at 0.1 µM: 100 nM, read-out: Percent inhibition of receptor binding at 100 nM, 5HT1A Receptor Binding
T1 sequence (P08908 1-422): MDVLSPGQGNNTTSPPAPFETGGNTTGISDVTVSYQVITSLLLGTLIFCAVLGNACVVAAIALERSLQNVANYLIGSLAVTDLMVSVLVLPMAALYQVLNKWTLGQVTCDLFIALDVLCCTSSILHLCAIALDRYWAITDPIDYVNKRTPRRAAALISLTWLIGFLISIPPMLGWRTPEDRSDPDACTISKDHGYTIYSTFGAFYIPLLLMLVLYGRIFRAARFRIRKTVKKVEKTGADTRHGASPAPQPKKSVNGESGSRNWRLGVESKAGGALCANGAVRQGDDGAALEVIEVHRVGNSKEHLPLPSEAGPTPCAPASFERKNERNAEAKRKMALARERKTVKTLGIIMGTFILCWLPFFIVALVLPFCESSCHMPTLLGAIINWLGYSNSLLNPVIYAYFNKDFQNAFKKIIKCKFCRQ
Experimental: (§1) A set of compounds were tested for their ability to inhibit binding of a binding ligand to the 5HT1A, 5HT1D, and 5HT7 receptors in a competitive assay. The tested compounds were placed in the assay with either radiolabeled OH-DPAT (which binds the 5HT1A receptor), radiolabeled serotonin (which binds the 5HT1D receptor), or radiolabeled LSD (lysergic acid diethylamide, which binds the 5HT7 receptor).

[2] = target: 5HT1D receptor (Homo sapiens, UniProt P28221); test: Competitive receptor binding, 5HT1D (radiolabeled serotonin); conditions: for inhibition at 0.1 µM: 100 nM, read-out: Percent inhibition of receptor binding at 100 nM, 5HT1D Receptor Binding
Experimental: as §1

[3] = target: 5HT7 receptor (Homo sapiens, UniProt P34969); test: Competitive receptor binding, 5HT7 (radiolabeled LSD); conditions: for inhibition at 0.1 µM: 100 nM, read-out: Percent inhibition of receptor binding at 100 nM, 5HT7 Receptor Binding
Experimental: as §1

[4] = test system: C57 male mice; test: Condition Avoidance Responding (CAR, active avoidance) model, antipsychotic activity; assay type: in vivo; conditions: 10 mg/kg subcutaneously 30 minutes before test session; C57 male mice tested 24 hours after training; FIG. 1
Experimental: The Condition Avoidance Responding (CAR, active avoidance) model is used as a test for antipsychotic activity. The disruption of avoidance (increased latency) without disruption of escape (extrapyramidal motor function) is a clinical predictor of compounds with antipsychotic activity. The compound of example 10 above (1-[3-(5-Pyridin-4-yl-[1,3,4]oxadiazol-2-ylsulfanyl)propyl]-4-(3-chlorophenyl)piperazine) was evaluated in this model as follows.
(§2) Training of animals (mice) consisted of 20 trials with variable inter-trial intervals (trained to 80% Avoidance Criteria). After a one-minute acclimation period, the house light and an acoustic 90 dB tone (conditioned stimuli) were presented. A response (crossing to a dark compartment) within 5 seconds ended the trial and the trial was recorded as avoidance response (CAR). […] To avoid shock, animals learn to move from the lighted side of the chamber to the dark side when the cue is presented (avoidance) or moved when the shock is administered (escape). Vehicle or test compounds were administered subcutaneously 30 minutes before the test session.
(§3) C57 male mice were tested 24 hours after being trained as described above.

[5] = test system: C57 male mice; test: Condition Avoidance Responding (CAR, active avoidance) model, memory; assay type: in vivo; conditions: 10 mg/kg subcutaneously 30 minutes before test session; C57 male mice tested 24 hours after training; FIG. 2
From the text: The Condition Avoidance Responding (CAR, active avoidance) model, although primarily a test for detecting anti-psychotic activity, includes an element of training and learning (acquisition of memory), and thus can also be used as a model for testing a compound's effects on learning (acquisition of information) and memory (retention of information). A decrease in the latency of an animal's response indicates an enhancement of an animal's memory of the stimulus. The compound of example 12 above (1-[3-(1-Phenyl-1H-tetrazol-5-ylsulfanyl)propyl]-4-(3-chlorophenyl)piperazine) was evaluated in this model as follows.
as §2, §3

Sequence of 5HT1D receptor (P28221 whole entry): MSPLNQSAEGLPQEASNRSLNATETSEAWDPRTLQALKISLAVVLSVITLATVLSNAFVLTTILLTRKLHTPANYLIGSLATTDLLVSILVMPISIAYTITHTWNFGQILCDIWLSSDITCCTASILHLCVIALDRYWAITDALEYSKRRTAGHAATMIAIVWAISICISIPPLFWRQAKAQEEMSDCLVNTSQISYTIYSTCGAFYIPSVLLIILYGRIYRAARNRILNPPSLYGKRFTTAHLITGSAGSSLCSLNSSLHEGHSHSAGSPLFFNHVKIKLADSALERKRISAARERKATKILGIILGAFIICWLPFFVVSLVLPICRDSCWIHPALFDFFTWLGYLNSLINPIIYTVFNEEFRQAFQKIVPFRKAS
Sequence of 5HT7 receptor (P34969 whole entry): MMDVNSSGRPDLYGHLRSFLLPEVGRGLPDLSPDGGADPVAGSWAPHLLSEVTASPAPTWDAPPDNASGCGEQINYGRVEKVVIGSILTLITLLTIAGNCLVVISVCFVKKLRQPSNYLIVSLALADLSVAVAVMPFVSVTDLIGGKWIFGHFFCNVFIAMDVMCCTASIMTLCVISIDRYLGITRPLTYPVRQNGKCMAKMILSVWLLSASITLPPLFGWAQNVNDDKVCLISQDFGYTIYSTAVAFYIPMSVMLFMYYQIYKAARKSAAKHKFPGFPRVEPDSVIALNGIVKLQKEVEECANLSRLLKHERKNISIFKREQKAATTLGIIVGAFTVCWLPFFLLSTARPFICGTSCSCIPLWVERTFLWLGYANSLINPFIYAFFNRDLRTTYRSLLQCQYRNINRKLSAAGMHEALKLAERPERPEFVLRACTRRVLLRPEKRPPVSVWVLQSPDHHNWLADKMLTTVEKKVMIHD

SMILES	inhibition at 0.1 µM [1]	inhibition at 0.1 µM [2]	inhibition at 0.1 µM [3]	latency in CAR (antipsychotic activity) [4]	latency in CAR (memory) [5]	Percent inhibition of receptor binding at 100 nM, 5HT1A Receptor Binding [1]	Percent inhibition of receptor binding at 100 nM, 5HT1D Receptor Binding [2]	Percent inhibition of receptor binding at 100 nM, 5HT7 Receptor Binding [3]
Cn1ccnc1SCCN1CCN(c2cccc(C(F)(F)F)c2)CC1 [Example 1, 1-[2-(1-Methyl-1H-imidazol-2-ylsulfanyl)ethyl]-4-(3-trifluoromethylphenyl)piperazine]	87%	52%	63%					
Clc1cccc(N2CCN(CCCSc3nnc(-c4ccncc4)o3)CC2)c1 [Example 10, 1-[3-(5-Pyridin-4-yl-[1,3,4]oxadiazol-2-ylsulfanyl)propyl]-4-(3-chlorophenyl)piperazine]	97%	51%	8%	statistically significant increase in latency				
Clc1cccc(N2CCN(CCCSc3nnnn3-c3ccccc3)CC2)c1 [Example 12, 1-[3-(1-Phenyl-1H-tetrazol-5-ylsulfanyl)propyl]-4-(3-chlorophenyl)piperazine]	75%	6%	43%		statistically significant decrease in latency			
c1cc(-c2nnc(SCCCN3CCN(c4nccc5occc45)CC3)o2)ccn1 [Example 42, 4-{4-[3-(5-Pyridin-4-yl-[1,3,4]oxadiazol-2-sulfanyl)propyl]piperazin-1-yl}furo[3,2-c]pyridine]						96%	65%	21%

Further lines, with some results ahead:

inhibition at 0.1 µM [1]	inhibition at 0.1 µM [2]	inhibition at 0.1 µM [3]	SMILES	latency in CAR (antipsychotic activity) [4]	latency in CAR (memory) [5]	Percent inhibition of receptor binding at 100 nM, 5HT1A Receptor Binding [1]	Percent inhibition of receptor binding at 100 nM, 5HT1D Receptor Binding [2]	Percent inhibition of receptor binding at 100 nM, 5HT7 Receptor Binding [3]
92%	10%	25%	FC(F)(F)c1cccc(N2CCN(CCSc3nnc(-c4ccncc4)o3)CC2)c1 [Example 3, 1-[2-(5-Pyridin-4-yl-[1,3,4]oxadiazol-2-ylsulfanyl)ethyl]-4-(3-trifluoromethylphenyl)piperazine]					
94%	50%	82%	Cn1ccnc1SCCCN1CCN(c2cccc(Cl)c2)CC1 [Example 8, 1-[3-(1-Methyl-1H-imidazol-2-ylsulfanyl)propyl]-4-(3-chlorophenyl)piperazine]					
71%		81%	Cn1ccnc1SCCCN1CCN(c2nccc3occc23)CC1 [Example 38, 4-{4-[3-(1-Methyl-1H-imidazol-2-ylsulfanyl)propyl]piperazin-1-yl}furo[3,2-c]pyridine]					
97%	38%	67%	c1ccc(-n2nnnc2SCCCN2CCN(c3nccc4occc34)CC2)cc1 [Example 40, 4-{4-[3-(1-Phenyl-1H-tetrazol-5-ylsulfanyl)propyl]piperazin-1-yl}furo[3,2-c]pyridine]					
